Here are results for 14 molecules from PMC10305617, “Sesquiterpene Coumarin Ethers with Selective Cytotoxic Activities from the Roots of Ferula huber-morathii Peşmen (Apiaceae) and Unequivocal Determination of the Absolute Stereochemistry of Samarcandin” (Pharmaceuticals, 2023).

Format in all cases: cell-based, Human
One data set relates to HUVEC. Kind of data set: MTS cell viability (cytotoxic activity) assay, non-cancerous HUVEC. The conditions noted are these: Homo sapiens, 72 h, mean ± SD, at least three experiments. The text has this:
(§1) Human colorectal cancer (COLO 205, CCL-222), breast cancer (MCF-7, HTB-22), chronic myelogenous leukemia (K-562, CCL-243), and umbilical vein/vascular endothelium (HUVEC, CRL-1730) cell lines were obtained from the American Type Culture Collection. The COLO 205, MCF-7, K-562, and HUVEC cell lines were maintained in Roswell Park Memorial Institute ([…], Wisent, Montreal, QC, CANADA), Eagle′s Minimum Essential Medium (EMEM, Wisent, Montreal, QC, CANADA), Iscove’s Modified Dulbecco’s Medium (IMDM, Wisent, Montreal, QC, CANADA), and Dulbecco′s Modified Eagle Medium (DMEM, Wisent, Montreal, QC, CANADA) supplemented with 10% fetal bovine serum (Capricorn, Ebsdorfergrund, Germany), 100 U/mL penicillin, and 100 µg/mL streptomycin (Wisent, Montreal, QC, CANADA), respectively. All of the cell lines were cultured at 37 °C in a humidified atmosphere containing 5% CO2.
(§2) A 3-[4,5-dimethylthiazol-2-yl]-5-[3-carboxymethoxyphenyl]-2-[4-sulfophenyl]-2H-tetrazolium, inner salt (MTS) cell viability assay was performed to evaluate the cytotoxic activities of the sesquiterpene coumarin ethers isolated from Ferula huber-morathii. HUVEC (1 × 10^4), COLO 205 (3 × 10^4), K-562 (3 × 10^4), and MCF7 (5 × 10^4) were plated in 96-well plates. Then, 24 h later, the tested compounds were dissolved in DMSO, and the cells were exposed to the different concentrations (131.58–1.028 µM) of the compounds for 72 h. Cisplatin and doxorubicin were used as a positive control. Next, an MTS/phenazine methosulfate (PMS) (Promega, Madison, WI, USA and Sigma, St. Louis, MO, USA respectively) mixture was added to each well and incubated for 1–4 h at 37 °C. The absorbance was read on a microplate reader (Biotek, Winooski, VT, USA) at 490 nm. The cytotoxic activities of the compounds were expressed as an IC50 value. The % inhibition of cell proliferation was calculated using the formula: % Inhibition = [1-(A490test/A490cont)] × 100, where A490test = absorbance of the test sample and A490cont = absorbance of the control sample [88]. The values of the 50% inhibition of the cell proliferation (IC50) were calculated by locating the x-axis values corresponding to one-half of the absorbance values of the sample.

In data set [1] the test system is COLO 205, K-562, MCF-7 and HUVEC cell lines. The data set is described as follows: MTS cytotoxicity, overall verbal grading over the cell line panel. The conditions noted are these: authors' verbal summary over COLO 205, K-562, MCF-7, HUVEC.
Text: as §1, §2

The test system of another data set is MCF-7. The data set is described as follows: MTS cell viability (cytotoxic activity) assay, MCF-7. The conditions noted are these: for IC50: Homo sapiens, MCF7, MCF-7, MTS, 72 h, mean ± SD, at least three experiments; for cytotoxic effect in words, MCF-7: verbal summary.
Text: as §1, §2

A further data set relates to COLO 205. The data set is described as follows: MTS cell viability (cytotoxic activity) assay, COLO 205. The conditions noted are these: for IC50: Homo sapiens, COLO 205, MTS, 72 h, mean ± SD, at least three experiments.
Text: as §1, §2

In the next data set the test system is K-562. Kind of data set: MTS cell viability (cytotoxic activity) assay, K-562. The conditions noted are these: for IC50: Homo sapiens, K562, K-562, MTS, 72 h, mean ± SD, at least three experiments.
Text: as §1, §2

What is called IC50 is the concentration that gives 50% inhibition. Higher therefore signals a need for much substance. Take `CC1(C)[C@H](O)CC[C@]2(C)[C@@H]1CC[C@@](C)(O)[C@@H]2COc1ccc2ccc(=O)oc2c1` [Ferukrin (9), ferukrin]: the IC50 was greater than 200 µM with HUVEC, 81.7 ± 1.96 µM in the data set with MCF-7, greater than 200 µM in the data set on COLO 205 and greater than 200 µM in the data set with K-562. The cytotoxicity in words result in data set [1] was “little or no cytotoxicity”.
Turning to `CN1C[C@H](c2cccc(C#N)c2)Oc2ccccc2C1=O` [Compound 6, reference compound], the cytotoxicity in words entry in data set [1] is recorded as “little or no cytotoxicity”.
With `C=C1CC[C@@H]2C(C)(C)C(=O)CC[C@@]2(C)[C@@H]1COc1ccc2ccc(=O)oc2c1` [Badrakemone (4), badrakemone], the half-maximal inhibitory concentration (IC50) in the data set with HUVEC, with MCF-7, with COLO 205 and in the data set on K-562 was greater than 200 µM in each case. Besides, the cytotoxicity in words entry in data set [1] is on record as “little or no cytotoxicity”.
Turning to `C=C1CC[C@@H]2C(C)(C)[C@@H](O)CC[C@@]2(C)[C@H]1COc1ccc2ccc(=O)oc2c1` [Gummosin (8), gummosin], the IC50 was 174.8 ± 0.28 µM with HUVEC, greater than 200 µM with MCF-7, greater than 200 µM in the data set with COLO 205 and 95.5 ± 4.87 µM in the data set with K-562. Also, in data set [1], the cytotoxicity in words result is recorded as “little or no cytotoxicity”.
As to `CC1(C)C(=O)CC[C@]2(C)[C@@H]1CC[C@](C)(O)[C@H]2COc1ccc2ccc(=O)oc2c1` [Samarcandone (13), samarcandone], the IC50 in the data set on HUVEC is 190 ± 5.2 µM; in the data set with MCF-7, greater than 200 µM; in the data set on COLO 205, 125 ± 2.13 µM; with K-562, greater than 200 µM. The cytotoxicity in words result in data set [1] is given as “little or no cytotoxicity”.
For `CC1(O)CCC2C(C)(C)C(O)CCC2(C)C1COc1ccc2ccc(=O)oc2c1` (centres unmarked) [Samarcandin (14), samarcandin], the half-maximal inhibitory concentration (IC50) with HUVEC amounted to 169 ± 2.68 µM; in the data set with MCF-7, 83.27 ± 0.39 µM; with COLO 205, 170 ± 3.62 µM; in the data set on K-562, 143 ± 1.67 µM. The cytotoxicity in words result in data set [1] is on record as “little or no cytotoxicity”.
For the molecule `CC1(C)[C@H]2CC[C@@](C)(O)[C@H](COc3ccc4ccc(=O)oc4c3)[C@]2(C)CC[C@@H]1O` [Deacetylkellerin (11), deacetylkellerin], the IC50 is greater than 200 µM in the data set on HUVEC, 47.62 ± 0.4 µM in the data set on MCF-7, greater than 200 µM in the data set on COLO 205 and greater than 200 µM with K-562. The cytotoxicity in words entry in data set [1] is listed as “little or no cytotoxicity”.
As to `C=C1CCC2C(C)(C)C(OC(C)=O)CCC2(C)C1COc1ccc2ccc(=O)oc2c1` (centres unmarked) [Farnesiferol A acetate (7), farnesiferol A acetate], the half-maximal inhibitory concentration (IC50) with HUVEC was found to be 64.5 ± 1.56 µM; in the data set with MCF-7 it was 27.4 ± 0.96 µM; in the data set on COLO 205, 66 ± 1.89 µM; with K-562, 52.7 ± 0.9 µM. Also, the cytotoxicity in words result in data set [1] is reported as “moderate or strong cytotoxicity”. Further, in the data set with MCF-7, the “cytotoxic effect in words, MCF-7” value was “moderate cytotoxic activity”.
For `C=C1CC[C@@H]2C(C)(C)[C@H](O)CC[C@@]2(C)[C@H]1COc1ccc2ccc(=O)oc2c1` [Farnesiferol A (6), farnesiferol A], the half-maximal inhibitory concentration (IC50) was 74.4 ± 1.19 µM in the data set on HUVEC, greater than 200 µM in the data set with MCF-7, greater than 200 µM in the data set on COLO 205 and greater than 200 µM in the data set on K-562.
For the molecule `CC(=O)O[C@H]1CC[C@]2(C)[C@H](CC[C@](C)(O)[C@H]2COc2ccc3ccc(=O)oc3c2)C1(C)C` [Samarcandin acetate (15), samarcandin acetate], the IC50 with HUVEC was greater than 200 µM; in the data set on MCF-7 it was greater than 200 µM; in the data set on COLO 205, 70.29 ± 0.65 µM; in the data set on K-562, 78.7 ± 1.65 µM. For the same molecule, in data set [1], the cytotoxicity in words result is “little or no cytotoxicity”.
For the molecule `CC(=O)O[C@H]1CC[C@]2(C)[C@H](CC[C@@](C)(O)[C@@H]2COc2ccc3ccc(=O)oc3c2)C1(C)C` [Kellerin (12), kellerin], the IC50 with HUVEC came to 99.4 ± 1.63 µM; in the data set with MCF-7 it was 18.24 ± 0.12 µM; in the data set with COLO 205, 51.1 ± 1.57 µM; in the data set with K-562, 78.1 ± 3.13 µM. The “cytotoxic effect in words, MCF-7” value in the data set on MCF-7 is “moderate cytotoxic effect”.
With `CC1=CC[C@@H]2C(C)(C)[C@@H](O)CC[C@@]2(C)[C@@H]1COc1ccc2ccc(=O)oc2c1` [Conferol (2), conferol], the IC50 in the data set on HUVEC was found to be 61.03 ± 0.29 µM; in the data set with MCF-7 it was 16 ± 0.46 µM; with COLO 205, 11.2 ± 0.68 µM; in the data set on K-562 it was 35.2 ± 0.89 µM. For the same molecule, the cytotoxicity in words entry in data set [1] is recorded as “moderate or strong cytotoxicity”. Besides, the “selectivity index MCF-7” value in the data set with MCF-7 (HUVEC versus MCF-7) is given as 3.82. For the same molecule, in the data set on COLO 205 (HUVEC versus COLO 205), the “selectivity index COLO 205” value is recorded as 5.45. Also, the “selectivity index K-562” value with K-562 (HUVEC versus K-562) is 1.73.
With `COc1cccc2c1C(=O)c1c(O)c3c(c(O)c1C2=O)C[C@@](O)(C(=O)CO)C[C@@H]3O[C@H]1C[C@H](N)[C@H](O)[C@H](C)O1` [Doxorubicin, reference compound], the half-inhibitory concentration (IC50) in the data set with HUVEC was found to be 0.2 ± 0.02 µM; in the data set on MCF-7, 2.83 ± 0.25 µM; with COLO 205, 0.08 µM; in the data set on K-562, 0.33 ± 0.02 µM.
As for `CC(=O)O[C@@H]1CC[C@]2(C)[C@H](CC[C@@](C)(O)[C@@H]2COc2ccc3ccc(=O)oc3c2)C1(C)C` [Ferukrin acetate (10), ferukrin acetate], the IC50 in the data set with HUVEC was greater than 200 µM; in the data set with MCF-7, greater than 200 µM; in the data set with COLO 205, 106 ± 1.35 µM; in the data set on K-562, 88.42 ± 0.85 µM. Besides, in data set [1], the cytotoxicity in words result was “little or no cytotoxicity”.
